Where only a bound is given, the exact number is not on record here.

Series [1] has as its system biofilms from C. albicans strains. Description: Checkerboard bromelain/clotrimazole, metabolic activity of biofilms (XTT reduction assay). Format: cell-based. Conditions: increasing concentrations of clotrimazole alone; tested C. albicans strains. For orientation: Tetrazolium assays rely on reduction of a dye to a coloured formazan, in cell work by metabolically active cells.
Description: Following the washing step of microplates, the number of metabolically active cells available to metabolize XTT is reduced, leading to the overall reduction on metabolic activity.

For series [2] the test system is unchanged. Conditions: clotrimazole alone, without bromelain.
The conditions of series [3]: applied with no dilution on skin and mucosa as occlusive patch; cited from earlier work.
The conditions of series [4]: after application in the eye; cited from earlier work.
Series [5] relates to planktonic cells of different Candida species, including C. albicans. Description: Direct fungistatic or fungicidal activity against planktonic cells. Conditions: previous studies by the applicant's team. Format: cell-based. Here is the method:
When bromelain is added, an increase of activity reduction is observed, dependent on the enzyme concentration (the addition of a 250 μg/mL bromelain solution leads to metabolic activity reductions near 80% for both strains). […] Thus, the increase in metabolic activity reduction shown for the combination of bromelain and clotrimazole is not due to a direct fungistatic activity of the enzyme, but to a degradation of the biofilm matrix. The degradation of this matrix allows for the penetration of clotrimazole in the biofilm favouring its antimicrobial action.

Take `Clc1ccccc1C(c1ccccc1)(c1ccccc1)n1ccnc1` [clotrimazole]: the “reduction of metabolic activity” value in series [1] is recorded as at most 60%. In addition, the “reduction of biofilm biomass” value in series [2] is “limited”.

As to `CC(=O)OCC(COC(C)=O)OC(C)=O` [triacetin], in series [3], the irritation potential entry is on record as “low irritation potential”. Also, the ocular irritation result in series [4] is listed as “induces an ocular irritation it does not cause harm”.

Take bromelain: the “direct fungistatic or fungicidal activity” value in series [5] is listed as “does not exhibit direct fungistatic or fungicidal activity”.

These data come from patent publication US20170304411A1, “TOPICAL FORMULATION FOR TREATING SKIN OR MUCOSAL INFECTIONS, PREPARATION METHOD AND USES THEREOF” (HPRD - HEALTH PRODUCTS RESEARCH AND DEVELOPMENT LDA, priority 2014, published 2017).
